Patent US20230372375A1, “SGLT-2 INHIBITOR SARCOSINE CO-CRYSTAL, PREPARATION METHOD THEREFOR AND USE THEREOF” (Beijing Creatron Institute of Pharmaceutical Research Co. …, priority 2020, published 2023)

What was measured:
[1] = Influencing factors test (physical and chemical stability) of canagliflozin crystal forms, Test Example 2; format: physicochemical; parameters: Impurity RRT0.73 content / Impurity RRT0.93 content / Impurity RRT1.12 content / Impurity RRT1.17 content / Impurity RRT2.25 content / Impurity RRT2.28 content / Impurity RRT0.57 content / Impurity RRT0.67 content: unit not given here
Procedure: The canagliflozin-sarcosine cocrystal and canagliflozin hemihydrate (original crystal form) were tested for influencing factors.

[2] = 1 g cannot be dissolved in 10000 ml; cited from earlier work
[3] = Directly exposed at 60° C. for 10 days
[4] = Directly exposed at 5000 LX for 10 days
[5] = Directly exposed at RH75% for 10 days

Impurity RRT0.57 content ([1]; 0 day): 0.01
Impurity RRT0.67 content ([1]; 0 day): 0.01
Impurity RRT0.93 content ([1]; 0 day): 0.01
Impurity RRT1.17 content ([1]; 0 day): 0.01
Impurity RRT2.25 content ([1]; 0 day): 0.01
Impurity RRT2.28 content ([1]; 0 day): 0.01
Number of impurities ([1]; 0 day): 6
Property (appearance) ([1]; 0 day): White
Total content of impurities ([1]; 0 day): 0.06%
Impurity RRT0.57 content [1, 3]: 0.01
Impurity RRT0.67 content [1, 3]: 0.01
Impurity RRT0.93 content [1, 3]: 0.01
Impurity RRT1.17 content [1, 3]: 0.01
Impurity RRT2.25 content [1, 3]: 0.01
Impurity RRT2.28 content [1, 3]: 0.01
Number of impurities [1, 3]: 6
Property (appearance) [1, 3]: White
Total content of impurities [1, 3]: 0.05%
Impurity RRT0.57 content [1, 4]: 0.02
Impurity RRT0.73 content [1, 4]: 0.01
Impurity RRT0.93 content [1, 4]: 0.01
Impurity RRT1.12 content [1, 4]: 0.01
Impurity RRT1.17 content [1, 4]: 0.01
Impurity RRT2.25 content [1, 4]: 0.01
Impurity RRT2.28 content [1, 4]: 0.01
Number of impurities [1, 4]: 7
Property (appearance) [1, 4]: White
Total content of impurities [1, 4]: 0.08%
Impurity RRT0.57 content [1, 5]: 0.01
Impurity RRT0.67 content [1, 5]: 0.01
Impurity RRT0.93 content [1, 5]: 0.02
Impurity RRT1.17 content [1, 5]: 0.01
Impurity RRT2.25 content [1, 5]: 0.01
Impurity RRT2.28 content [1, 5]: 0.01
Number of impurities [1, 5]: 6
Property (appearance) [1, 5]: White
Total content of impurities [1, 5]: 0.07%
Weight gained ([1]; high humidity of RH75% for 10 days): about 2.1%
Weight lost ([1]; high temperature of 60° C. for 10 days): about 1.0%
New impurities detected (number) ([1]; light irradiation of 5000LX for 10 days): 1
Structure (SMILES): Cc1ccc([C@@H]2O[C@H](CO)[C@@H](O)[C@H](O)[C@H]2O)cc1Cc1ccc(-c2ccc(F)cc2)s1.O [canagliflozin hemihydrate]
Solubility in water [2]: almost insoluble in water
